The target in assay [1] is T1, MKNK1 (Homo sapiens, UniProt Q9BUB5, T385D).
T1 construct: GST (N); purchased Carna Biosciences 02-145; host or cells: insect cells (baculovirus expression system)
Description: MKNK1 kinase assay (MKNK1 TR-FRET assay). It counts as biochemical. As to conditions: 10 μM ATP, 15 min preincubation. On the technique in general: Time-resolved FRET reads energy transfer from a long-lived donor to a nearby acceptor.

Assay [2] has as its target T1, MKNK1. Description: MKNK1 kinase high ATP assay (TR-FRET-based). The assay is classed as biochemical. As to conditions: 2 mM ATP, 15 min preincubation. The method, boiled down:
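GST-tagged full-length human MKNK1 (aa 1-424, T344D) from insect cells, preincubated with compound 15 min at 22 °C. Reaction 30 min at 22 °C with 2 mM ATP and 0.06 μM biotinylated peptide in HEPES pH 7.5, Mg2+, DTT. Phosphopeptide detected by TR-FRET (665/622 ratio) with anti-pS6 (pSer236) antibody; normalised to no-inhibitor and no-enzyme controls.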

The results in this text go back to patent US20160287589A1, “SUBSTITUTED-IMIDAZOPYRIDAZINES” (BAYER PHARMA AKTIENGESELLSCHAFT, priority 2013, published 2016).

The IC50 is the point on the concentration scale where inhibition reaches its midpoint. Low readings indicate inhibition by little substance, high ones a need for much substance.

T1 sequence (Q9BUB5 1-424 isoform Q9BUB5-2 T344D): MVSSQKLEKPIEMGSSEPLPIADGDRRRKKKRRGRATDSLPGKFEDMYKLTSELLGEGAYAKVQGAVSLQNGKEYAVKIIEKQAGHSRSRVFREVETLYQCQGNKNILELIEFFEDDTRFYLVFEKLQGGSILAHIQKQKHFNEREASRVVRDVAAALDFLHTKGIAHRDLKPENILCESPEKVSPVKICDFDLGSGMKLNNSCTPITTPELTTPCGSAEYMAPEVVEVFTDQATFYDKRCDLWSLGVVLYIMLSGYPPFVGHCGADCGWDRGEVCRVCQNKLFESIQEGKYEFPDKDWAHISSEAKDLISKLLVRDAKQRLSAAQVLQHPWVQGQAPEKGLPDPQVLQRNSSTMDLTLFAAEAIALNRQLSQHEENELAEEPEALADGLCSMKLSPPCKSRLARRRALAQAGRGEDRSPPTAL

Take `CN(CCCN1CCCC1)c1nccc2oc(-c3cnc4ccc(OCCCS(C)(=O)=O)nn34)cc12` [III-47, N-methyl-2-{6-[3-(methylsulfonyl)propoxy]imidazo[1,2-b]pyridazin-3-yl}-N-[3-(pyrrolidin-1-yl)propyl]furo[3,2-c]pyridin-4-amine]: the IC50 came to 13.6 nM at MKNK1 [1] (Table 1c) and 21.2 nM against MKNK1 [2] (Table 2c).
Take `CC(C)(C)[Si](C)(C)OC[C@H]1CCCN1c1nccc2oc(-c3cnc4ccc(OC[C@H]5CCC(=O)N5)nn34)cc12` [III-66, (5R)-5-{[(3-{4-[(2R)-2-({[tert-Butyl(dimethyl)silyl]oxy}methyl)pyrrolidin-1-yl]furo[3,2-c]pyridin-2-yl}imidazo[1,2-b]pyridazin-6-yl)oxy]methyl}pyrrolidin-2-one]: the IC50 against MKNK1 [1] (Table 1c) came out at 4.2 nM; at MKNK1 [2] (Table 2c), 8.5 nM.
For the molecule `CC1(C)CN(c2nccc3oc(-c4cnc5ccc(OCCCS(C)(=O)=O)nn45)cc23)CCO1` [III-135, 3-[4-(2,2-dimethylmorpholin-4-yl)furo[3,2-c]pyridin-2-yl]-6-[3-(methylsulfonyl)propoxy] imidazo[1,2-b]pyridazine], the values for the IC50 at MKNK1 [1] (Table 1c) and on MKNK1 [2] (Table 2c) were 30.1 nM and 12.9 nM, respectively.
Consider `C[C@H](N)COc1ccc2ncc(-c3cc4c(N5CCCC5)nccc4o3)n2n1` [III-10, (2S)-1-({3-[4-(Pyrrolidin-1-yl)furo[3,2-c]pyridin-2-yl]imidazo[1,2-b]pyridazin-6-yl}oxy)propan-2-amine], for which the results for the half-inhibitory concentration (IC50) on MKNK1 [1] (Table 1c) and at MKNK1 [2] (Table 2c) were 15.4 nM and 63.5 nM, respectively.
Take `COC[C@H]1CCCN1c1cccc2oc(-c3cnc4ccc(OC[C@@H](C)N)nn34)cc12` [II-26, (2R)-1-[(3-{4-[(2R)-2-(Methoxymethyl)pyrrolidin-1-yl]-1-benzofuran-2-yl}imidazo[1,2-b]pyridazin-6-yl)oxy]propan-2-amine]: the half-inhibitory concentration (IC50) at MKNK1 [1] (Table 1b) and against MKNK1 [2] (Table 2b) was 0.8 nM throughout.
As to `C[C@H](N)COc1ccc2ncc(-c3cc4c(N5CCC(N(C)C)CC5)nccc4o3)n2n1` [III-21, 1-[2-(6-{[(2S)-2-Aminopropyl]oxy}imidazo[1,2-b]pyridazin-3-yl)furo[3,2-c]pyridin-4-yl]-N,N-dimethylpiperidin-4-amine], the half-inhibitory concentration (IC50) is 12 nM against MKNK1 [1] (Table 1c) and 33.2 nM against MKNK1 [2] (Table 2c).
As for `O=C(c1ccno1)N1CCC[C@H]1CCOc1ccc2ncc(-c3cc4ccccc4o3)n2n1` [Example I-47, [(2S)-2-(2-{[3-(1-Benzofuran-2-yl)imidazo[1,2-b]-pyridazin-6-yl]oxy}ethyl)pyrrolidin-1-yl](1,2-oxazol-5-yl)methanone], the 50% inhibitory concentration (IC50) is 1.6 nM on MKNK1 [1] (Table 1a) and 2.2 nM at MKNK1 [2] (Table 2a).
`CC(=O)NC(COc1ccc2ncc(-c3cc4ccccc4o3)n2n1)c1cccnc1` (stereo not drawn) [Example I-34, N-[2-{[3-(1-Benzofuran-2-yl)imidazo[1,2-b]pyridazin-6-yl]oxy}-1-(pyridin-3-yl)ethyl]acetamide]: the IC50 stood at 16.4 nM at MKNK1 [1] (Table 1a) and 45.1 nM on MKNK1 [2] (Table 2a).
For `O=C1CC[C@H](COc2ccc3ncc(-c4cc5ccccc5o4)n3n2)N1` [Example I-9, (5R)-5-({[3-(1-Benzofuran-2-yl)imidazo[1,2-b]pyridazin-6-yl]oxy}methyl)-pyrrolidin-2-one], in that order: 3.3 nM and 9.6 nM.
On to `C[C@@H]1CN(c2nccc3oc(-c4cnc5ccc(OCCCS(C)(=O)=O)nn45)cc23)C[C@H](C)O1` [III-53, 3-{4-[(2R,6S)-2,6-Dimethylmorpholin-4-yl]furo[3,2-c]pyridin-2-yl}-6-[3-(methyl-sulfonyl)propoxy]imidazo[1,2-b]pyridazine], for which the values for the half-maximal inhibitory concentration (IC50) on MKNK1 [1] (Table 1c) and against MKNK1 [2] (Table 2c) were 8.7 nM and 26.7 nM, respectively.
In the case of `COc1ccc2ncc(-c3cc4c(N5CCN[C@@H](C)C5)nccc4o3)n2n1` [III-133, 6-methoxy-3-{4-[(3S)-3-methylpiperazin-1-yl]furo[3,2-c]pyridin-2-yl}imidazo[1,2-b]pyridazine], the values for the IC50 at MKNK1 [1] (Table 1c) and against MKNK1 [2] (Table 2c) were 2.7 nM and 13.1 nM, respectively.
`FC(F)(F)COc1ccc2ncc(-c3cc4c(N5CCNCC5)cccc4o3)n2n1` [II-56, 3-[4-(piperazin-1-yl)-1-benzofuran-2-yl]-6-(2,2,2-trifluoroethoxy)im-idazo[1,2-b]pyridazine]: the IC50 came out at 5.4 nM against MKNK1 [1] (Table 1b) and 3.1 nM at MKNK1 [2] (Table 2b).
As for `CC(C)(C)CC(=O)NCCOc1ccc2ncc(-c3cc4ccccc4o3)n2n1` [Example I-17, N-(2-{[3-(1-Benzofuran-2-yl)imidazo[1,2-b]pyridazin-6-yl]oxy}ethyl)-3,3-dimethylbutanamide], the IC50 amounted to 4.6 nM against MKNK1 [1] (Table 1a) and 13.7 nM against MKNK1 [2] (Table 2a).
`C[C@H](N)COc1ccc2ncc(-c3cc4c(N5CCOC[C@H]5C)nccc4o3)n2n1` [III-25, (2S)-1-[(3-{4-[(3R)-3-Methylmorpholin-4-yl]furo[3,2-c]pyridin-2-yl}imidazo-[1,2-b]pyridazin-6-yl)oxy]propan-2-amine]: the IC50 against MKNK1 [1] (Table 1c) was 9.2 nM; at MKNK1 [2] (Table 2c), 13.7 nM.
On to `C[C@H]1CNCCN1c1cccc2oc(-c3cnc4ccc(OC[C@@H]5CCC(=O)N5)nn34)cc12` [II-38, (5S)-5-{[(3-{4-[(2S)-2-methylpiperazin-1-yl]-1-benzofuran-2-yl}imidazo[1,2-b]pyridazin-6-yl)oxy]methyl}pyrrolidin-2-one], for which the 50% inhibitory concentration (IC50) on MKNK1 [1] (Table 1b) is 4.6 nM; against MKNK1 [2] (Table 2b), 1.4 nM.
On to `COc1cccc2oc(-c3cnc4ccc(OC[C@@H]5CCC(=O)N5)nn34)cc12` [Example I-19, (5S)-5-({[3-(4-Methoxy-1-benzofuran-2-yl)imidazo[1,2-b]pyridazin-6-yl]oxy}-methyl)pyrrolidin-2-one], for which the concentration for half-maximal inhibition (IC50) came out at 4.5 nM on MKNK1 [1] (Table 1a) and 15.4 nM at MKNK1 [2] (Table 2a).
In the case of `N[C@H]1C[C@H](Oc2ccc3ncc(-c4cc5c(N6CCN(c7ccccc7)CC6)cccc5o4)n3n2)C1` [II-16, trans-3-({3-[4-(4-Phenylpiperazin-1-yl)-1-benzofuran-2-yl]imidazo[1,2-b]-pyridazin-6-yl}oxy)cyclobutanamine], the IC50 on MKNK1 [1] (Table 1b) is 13 nM; on MKNK1 [2] (Table 2b), 15 nM.
With `CC(C)(C)C(=O)N1CCC[C@H]1CCOc1ccc2ncc(-c3cc4cnccc4o3)n2n1` [IV-7, 1-[(2S)-2-(2-{[3-(Furo[3,2-c]pyridin-2-yl)imidazo[1,2-b]pyridazin-6-yl]-oxy}ethyl)pyrrolidin-1-yl]-2,2-dimethylpropan-1-one], the half-maximal inhibitory concentration (IC50) amounted to 1 nM on MKNK1 [1] (Table 1d) and 4 nM against MKNK1 [2] (Table 2d).
Consider `O=C1CCCC(COc2ccc3ncc(-c4cc5ccccc5o4)n3n2)N1` (stereo not drawn) [Example I-8, 6-({[3-(1-Benzofuran-2-yl)imidazo[1,2-b]pyridazin-6-yl]oxy}methyl)piperidin-2-one], for which the 50% inhibitory concentration (IC50) was determined as 5.2 nM at MKNK1 [1] (Table 1a) and 9.3 nM at MKNK1 [2] (Table 2a).
With `C[C@@H]1CN(c2cccc3oc(-c4cnc5ccc(OC[C@H]6CCC(=O)N6)nn45)cc23)CCO1` [II-71, (5R)-5-{[(3-{4-[(2R)-2-methylmorpholin-4-yl]-1-benzofuran-2-yl}imidazo[1,2-b]pyridazin-6-yl)oxy]methyl}pyrrolidin-2-one], the values for the IC50 against MKNK1 [1] (Table 1b) and against MKNK1 [2] (Table 2b) were 6.5 nM and 6.1 nM, respectively.
Consider `COc1ccc2ncc(-c3cc4c(N5CCNC(C)(C)C5)nccc4o3)n2n1` [III-130, 3-[4-(3,3-dimethylpiperazin-1-yl)furo[3,2-c]pyridin-2-yl]-6-methoxy-imidazo[1,2-b]pyridazine], for which the half-inhibitory concentration (IC50) amounted to 5.3 nM at MKNK1 [1] (Table 1c) and 1.5 nM at MKNK1 [2] (Table 2c).
